Marks after values point to notes of the source that are not given here.
Key:
white mongrel male rats [1] = assay: Carrageenan paw edema, cutaneous gel application (series 2); type: in vivo; settings: for Volume of paws (conditional units) Right: 0.1 ml of 1% gel on right paw, 4 hours after carrageenan; for Volume of paws (conditional units) left: 1% gel group, left paw; for Volume of paws (conditional units) left / Inflammation inhibition (%) / Volume increment: 4 hours; for Inflammation inhibition (%) / Volume increment: 1% gel
Protocol: (§1) Experiment was carried out on white mongrel male rats weighing 280-300 g. Carrageenan-induced edema was caused according to the method of Winter et al. [[inter et al. In: De Rosa M., Giroud J.P., Willoughby D.A. Studies of the mediators of the acute inflammatory reponse induced in rats in different sites by carrageenan and turpentine. […] Paw volume measurement was done using a plethysmograph (Ugo Basile) 1, 3 and 4 hours after carrageenan administration. Inhibition of inflammatory reaction expressed in percent, was calculated according to the formula: 100-[(R-L(exper.))/(L):(R-L(control))/(L)x100](%) [formula] where R - the right paw volume, L - the left paw volume.
Series 2 of experiment. 2% carrageenan solution was injected sublaterally into paws of rats. In 1 minute 0.1 ml of gel comprising the test compounds were applied on the right paw. Gel base consisted of propylene glycol dissolved in the mixture of water and ethanol. Concentration of the compounds in the gel was 1%. Volume of paws was measured 4 hours after carrageenan administration.

[2] = tested on: hepatic P-450 cytochrome system; assay: Hexenal sleep duration in mice; type: in vivo; settings: CBF1 mice, oral 3 days, control 25.91 ± 1.57
Protocol: Change in Hexenal sleep (HS) duration is the in vivo measurable index of hepatic P-450 cytochrome system condition.
Studies were carried out on male mice of the lines BALB/c*h75, C57B1/6, CBA, DBA/2, first generation CBF1 and BDF1 hybrides, with initial mass 18-20 g, each group including 10 mice; and on mongrel male guinea pigs with initial mass 250-300 g, each group including 24 animals. All the test compounds (from II to LII) were administered orally in drinking water and for three days at doses 50 and 500 µg/kg. Hexenal hydrochloride at a dose […] of animal mass was administered 24 hours after the last drug administration, except for line BALB/c*h75 mice, which were administered Hexenal at a dose 60 µg/kg at the same terms, and guinea pigs for which Hexenal dose was 30 µg/kg. HS duration was determined in minutes.

hydroxyl radical = assay: Hydroxyl radical formation in the Fenton reagent (chemiluminescence); type: biochemical
Protocol: Active oxygen forms (AOF) of different nature were generated in the following systems: • A. Hydroxyl radical - in the mixture of FeSO4 with H2O2 (the Fenton reagent) [Halliwell B. Superoxide-dependent formation of hydroxyl radicals in the presence of iron salts. […] Incubation medium comprised 5 mM KH2PO4 (pH 7.4); 5 mM FeSO4; 2 mM luminol. H2O2 at final concentration 5 mM was introduced into a cuvette through a dispencer following background luminescence recording of the reagents' mixture. 5 to 10 ml of the test compounds dissolved in water were at needed concentration introduced into a cuvette.
CL flash recording duration after mixing ingredients, depended on a particular process kinetics. For each system, CL light sum (mV) was determined in the control samples without preparations (I-) and in samples comprising respective concentrations of preparations (I+). To estimate CL inhibition (activation) degree, the I+/I- ratio (in relative units) was found in the studied systems.
When H2O2 was introduced into phosphate buffer comprising iron sulfate, CL flash occured which was caused by formation of predominantly hydroxyl radical in the reaction mixture.

[3] = tested on: Lewis pulmonary carcinoma (LLC); assay: Lewis pulmonary carcinoma growth; type: in vivo; settings: mice with LLC, day 12; for Growth inhibition percent: compound in drinking water; for Tumor volume (mm^3): compound in drinking water from 24 hours after transplantation
Protocol: Experiments were carried out on male mice with initial body mass 18-20 g. Each group included 10 animals. […] Administration of compounds II, III, IX, X, XII, XIV, XV, XVI, XVII, XIX, XXII, XLVII in drinking water was commenced 24 hours following transplantation and continued till the end of experiment. Effect of the compounds on Lewis rat pulmonary carcinoma (LLC) was estimated by day 12 of experiment by change in tumor volume expressed in mm^3.

[4] = tested on: Lewis pulmonary carcinoma (LLC); assay: Lewis pulmonary carcinoma spontaneous metastasizing, oral administration; type: in vivo; settings: BDF1 female mice with LLC, oral 24 days; for Mean number of metastases: day 25
Protocol: Each group included 15 animals. 0.3 ml of LLC tumor tissue suspension was intramuscularly injected to mice. Henks solution was used as a solvent. […] Moscow (1992) 13 pp.]. […]

mongrel male rats = assay: Hypolipidemic activity: experimental hyperlipidemia (atherogenic load); settings: atherogenic diet, oral last four days; for HDL-CS / LDL-CS+ VLDL-CS / Total CS / Triglycerides: blood; for Kcs: cholesterol index;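 on all read-outs here: serum drawn 18 h after the final dose from rats deprived of food over that interval, groups of 10 animals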
Protocol: Hypolipidemic activity of the compounds of general formula (I) was studied on the model of experimental hyperlipidemia [Arichi H., Kumura H.O. Effects of stibens compounds of roots of polygonum cuspidatium on the lipid metabolism. […] Each group of animals included 10 rats. […] Blood samples were taken for analysis 18 hours after the last administration of the test substances during which period food was taken away from rats.
The following parameters were determined: total cholesterol (total CS); high density lipoprotein cholesterol (HDL-CS); low density lipoprotein cholesterol and very low density lipoprotein cholesterol (LDL-CS and VLDL-CS); triglycerides (TG). Blood serum CS level was determined according to the Ilk method [Biochemical examination in the clinic. […] HDL-CS level was measured in supernatant following heparine-manganese precipitation of LDL+VLDL [Titov V.N., Brener E.D., Khaltaiev N.G., Zadoya A.A., Tvorogova M.G. A method and diagnostic significance of cholesterol level study in α-lipoproteins. […] LDL-CS level determination was carried out by calculation according to the formula presented in the work Friedwald W.T. [Friedwald W.T., Levy K.J., Leus R. Fat transport in lipoproteins: an integrated approach to mechanism and disorders.
To assess the effect of the test compounds on the ratio of atherogenic and antiatherogenic blood serum lipoproteins, cholesterol index (Kcs) was calculated according to the formula presented in the work [Klimov A.N., Nikulcheva N.G. Lipoproteins, dylipoproteinemias and atherosclerosis.
Blood serum TG level was determined using the conventional method [Friedwald W.T., Levy R.I., Fredrickson D.S. Estimation of concentration of low-density lipoprotein cholesterol in plasma, without use of preparative ultracentrifuge.

white mongrel male rats [5] = assay: Carrageenan paw edema, oral administration (series I); type: in vivo
Protocol: as §1
Series I of experiment. […] The reference drug Naproxene was once administered at a dose 20 µg/kg 1 hour before edema induction. Each group included 10 animals.

superoxide anion-radical = assay: Superoxide anion-radical formation in the xantine-xantine oxidase system (chemiluminescence); type: biochemical
Protocol: Effect of the compounds of general formula (I) on change in chemiluminescence (CL) determined by hydroxyl radical ( OH) and superoxide anion-radical (O2-), in the model chemical and enzymatic systems.
5 to 10 ml of the test compounds dissolved in water were at needed concentration introduced into a cuvette. A total sample volume was 0.5 ml. • B. Superoxide anion-radical in the mixture of xantine and xantine oxidase [Afanas'ev I., Suslova T., Cheremisina Z. et al. Study of antioxidant properties of metal aspartates.
Incubation medium comprised 5 mM KH2PO4; 0.2 IU/ml xantine oxidase. Xantine at concentration 1 mM was introduced into sample through a dispencer. Luceginine (0.2 mM) was used in this system as luminiscence sensitizer.
CL signal indication was performed by its integration every 10 seconds for 5 minutes. CL flash recording duration after mixing ingredients, depended on a particular process kinetics. For each system, CL light sum (mV) was determined in the control samples without preparations (I-) and in samples comprising respective concentrations of preparations (I+). To estimate CL inhibition (activation) degree, the I+/I- ratio (in relative units) was found in the studied systems.
AOF formation and effect of the test compounds on this process were recorded on the Luminometer-1251 instrument (LKB, Sweden).
Because of such "distension" of the kinetic curve, chemiluminescence light sum was recorded during the first 3-5 minutes which reflected a total amount of light quantums produced in the system till achieving the maximum CL intensity values.

mongrel male mice = assay: Delayed hypersensitivity induced by picryl chloride (TCB), local ointment; type: in vivo; settings: mice, TCB
Protocol: Effect study of the compounds on the delayed type hypersensitivity reaction induced in mice by 2.4.6-trichlorobenzol (TCB) was carried out according to the method of Tarayre et al. [Tarayre J.P., Barbara M., Aliaga M., Tisne-Versilles. Comparative actions of immunosuppressants, glucocorticoids and non-steroidal antiinflammatory drugs on various models of delayed hypersensitivity and on a non-immune inflammation in mice. Arzneim.-Forsch. Drug Res. (1990), Vol. 40, pip.1125-1131].
Studies were conducted on mongrel male mice with initial body mass 30-35 g. Each group included 10 animals. Mice were sensitized with 0.1 ml 3% TCB solution in acetone application on a shaved abdominal area. In 7 days, the anaphylaxis-provoking TCB dose (0.025 ml of 3% solution) was applied on both surfaces of the right ear. In 30 minutes 0.05 ml of the test ointment were rubbed into the same surfaces. 24 hours after edema induction, mice were sacrified, ears were cut off and weighed. Allergic reaction intensity was assessed by change in weight in grams of the right ear (the test one) in relation to the left ear (the control ear).
Allergic reaction inhibition expressed in percent was calculated according to the formula: 100-[(R-L(exper.))/(L):(R-L(control))/(L)x100](%) [formula] where R - the right ear weight, L - the left ear weight.
The test compounds were applied on the ear in the form of 1% and 5% ointment the base of which were 10% methylcellulose solution and propylene glycol at 1:1 ratio.
Groups of animals: • Group 1 - control, ointment base without active substance was applied on the ear of animals. • Group 2 - ointment base comprising 1% compound III was applied on the ear of animals. • Group 3 - ointment base comprising 1% compound XVII was applied on the ear of animals. • Group 4 - ointment base comprising 5% compound XLVIII was applied on the ear of animals.

[6] = 0.01 mM, control of the series as in the table
[7] = 0.1 mM, control of the series as in the table
[8] = 1 mM, control of the series 7839 ± 171, 1120 ± 163, 4974 ± 283 or 1332 ± 172
[9] = intragastral four times 50 µg/kg
[10] = 1 µM, control of the series as in the table
[11] = 1 mM, control of the series 5616 ± 173, 5391 ± 195, 7290 ± 128 or 6776 ± 150

SMILES: O=C(O)Cc1ccccc1Nc1c(Cl)cccc1Cl [Voltaren, reference compound]
- Volume of paws (conditional units) Right (white mongrel male rats [1]): 1.99 ± 0.24 conditional units
- Volume of paws (conditional units) left (white mongrel male rats [1]): 1.63 ± 0.26 conditional units
- Inflammation inhibition (%) (white mongrel male rats [1]): 48%
- Volume increment (white mongrel male rats [1]): 0.40 ± 0.03

SMILES: COC(=O)[C@H](Cc1c[nH]cn1)NC(=O)CCCC(=O)O [IX, N-GLUTARYL-L-HISTIDINE METHYL ETHER]
- Hexenal sleep duration (minutes) ([2]; 50 µg/kg): 16.71 ± 0.94** minutes
- Hexenal sleep duration ([2]; 500 µg/kg): 20.76 ± 1.32 min
- relative effect: I+/I- (hydroxyl radical; 0.01 mM): 0.95
- Chemiluminiscence intensity (mV) + σn-1 (hydroxyl radical; [6]): 1069 ± 72 mV
- relative effect: I+/I- (hydroxyl radical; 0.1 mM): 0.59
- Chemiluminiscence intensity (mV) + σn-1 (hydroxyl radical; [7]): 664 ± 47 mV
- relative effect: I+/I- (hydroxyl radical; 1 mM): 0.20
- Chemiluminiscence intensity (mV) + σn-1 (hydroxyl radical; [8]): 225 ± 9 mV
- Growth inhibition percent [3]: 10%
- Tumor volume (mm^3) [3]: 2372 ± 323 mm^3
- Mean number of metastases ([4]; 500 µg/kg): 38.5 ± 5.7*^3
- Metastasizing inhibition percent ([4]; 500 µg/kg): 24.0%
- HDL-CS (mongrel male rats; 50 µg/kg): 29,7±3,6*^A
- LDL-CS+ VLDL-CS (mongrel male rats; 50 µg/kg): 48,7±4,4**^A
- Total CS (mongrel male rats; 50 µg/kg): 78,4±4,4*^A
- Triglycerides (mongrel male rats; 50 µg/kg): 24,5±20,2
- HDL-CS (mongrel male rats; 500 µg/kg): 20,1±1,6
- LDL-CS+ VLDL-CS (mongrel male rats; 500 µg/kg): 52,0±3,4**^A
- Total CS (mongrel male rats; 500 µg/kg): 72,1±3,9**^A
- Triglycerides (mongrel male rats; 500 µg/kg): 201.8±8,1***^A
- Kcs (mongrel male rats; 50 µg/kg): 1,64±0,16***^A
- Kcs (mongrel male rats; 500 µg/kg): 2,59±0,17***^A

SMILES: N[C@@H](Cc1c[nH]cn1)C(=O)NCCC(=O)O [compound XXXVI, N-L-HISTIDYL-β-ALANINE]
- Volume of paws (conditional units) Right (white mongrel male rats [1]): 2.23 ± 0.42 conditional units
- Volume of paws (conditional units) left (white mongrel male rats [1]): 1.86 ± 0.16 conditional units
- Inflammation inhibition (%) (white mongrel male rats [1]): 50%
- Volume increment (white mongrel male rats [1]): 0.37 ± 0.07

SMILES: O=C(O)CCC(=O)NCCc1c[nH]cn1 [compound II, N-SUCCINYLHISTAMINE]
- Inflammation inhibition (%) (white mongrel male rats [5]; [9]): 12%
- Volume increment (white mongrel male rats [5]; [9]): 0.64 ±0.05*^!
- Volume of paws (conditional units) left (white mongrel male rats [5]; [9]): 1.28 ± 0.28 conditional units
- Volume of paws (conditional units) Right (white mongrel male rats [5]; intragastral four times 50 µg/kg 72, 48, 24 and 1 hour before): 1.92 ± 0.65 conditional units
- Hexenal sleep duration (minutes) ([2]; 500 µg/kg): 21.72 ± 1.24* minutes
- relative effect: I+/I- (hydroxyl radical; 1 µM): 0.86
- Chemiluminiscence intensity (mV) + σn-1 (hydroxyl radical; [10]): 961 ± 42 mV
- relative effect: I+/I- (hydroxyl radical; 0.01 mM): 0.69
- Chemiluminiscence intensity (mV) + σn-1 (hydroxyl radical; [6]): 772 ± 44 mV
- relative effect: I+/I- (hydroxyl radical; 0.1 mM): 0.62
- Chemiluminiscence intensity (mV) + σn-1 (hydroxyl radical; [7]): 693 ± 42 mV
- relative effect: I+/I- (hydroxyl radical; 1 mM): 0.16
- Chemiluminiscence intensity (mV) + σn-1 (hydroxyl radical; [8]): 175 ± 21 mV
- relative effect: 1+/I- (superoxide anion-radical; 0.01 mM): 0.97
- Chemiluminiscence intensity (mV) + σn-1 (superoxide anion-radical; [6]): 5229 ± 140 mV
- relative effect: 1+/I- (superoxide anion-radical; 0.1 mM): 0.88
- Chemiluminiscence intensity (mV) + σn-1 (superoxide anion-radical; [7]): 4753 ± 89 mV
- relative effect: 1+/I- (superoxide anion-radical; 1 mM): 0.58
- Chemiluminiscence intensity (mV) + σn-1 (superoxide anion-radical; [11]): 3143 ± 156 mV
- Growth inhibition percent [3]: 61%
- Tumor volume (mm^3) [3]: 1025 ± 150** mm^3
- Mean number of metastases ([4]; 50 µg/kg): 44.3 ± 8.0
- Mean number of metastases ([4]; 500 µg/kg): 32.9 ± 4.8*^2
- Metastasizing inhibition percent ([4]; 50 µg/kg): 5.5%
- Metastasizing inhibition percent ([4]; 500 µg/kg): 30.0%

SMILES: COC(=O)[C@@H](N)CCC(=O)N[C@@H](Cc1c[nH]cn1)C(=O)O.Cl.Cl [compound XI, γ-L-GLUTAMYL HISTIDINE α-METHYL ETHER DICHLOROHYDRATE]
- Hexenal sleep duration (minutes) ([2]; 500 µg/kg): 17.71 ± 0.66*** minutes
- Chemiluminiscence intensity (mV) + σn-1 (hydroxyl radical; [10]): 1116 ± 90 mV
- Chemiluminiscence intensity (mV) + σn-1 (hydroxyl radical; [6]): 1124 ± 113 mV
- relative effect: I+/I- (hydroxyl radical; 1 mM): 0.50
- Chemiluminiscence intensity (mV) + σn-1 (hydroxyl radical; [8]): 557 ± 52 mV
- relative effect: 1+/I- (superoxide anion-radical; 0.1 mM): 0.82
- Chemiluminiscence intensity (mV) + σn-1 (superoxide anion-radical; [7]): 4621 ± 224 mV
- relative effect: 1+/I- (superoxide anion-radical; 1 mM): 0.40
- Chemiluminiscence intensity (mV) + σn-1 (superoxide anion-radical; [11]): 2263 ± 278 mV

SMILES: O=C(O)CCCC(=O)NCCc1c[nH]c2ccccc12 [compound XVII, N-GLUTARYLTRYPTAMINE]
- Reaction inhibition (%) (mongrel male mice; 1% ointment): 24%
- weight increment (mongrel male mice; 1% ointment): 6.1 ± 0.59 g
- Weight of years (g) Right (mongrel male mice; 1% ointment on right ear 30 minutes after challenge, 24 hours): 21.6 ± 1.02 g
- Weight of years (g) left (mongrel male mice; left (control) ear of animals given 1% ointment): 15.5 ± 1.02 g
- Growth inhibition percent [3]: 48%
- Tumor volume (mm^3) [3]: 1367 ± 233** mm^3

SMILES: NCCC(=O)NCCc1c[nH]c2ccccc12 [compound XIII]
- Volume of paws (conditional units) Right (white mongrel male rats [1]): 2.29 ± 0.18 conditional units
- Volume of paws (conditional units) left (white mongrel male rats [1]): 1.82 ± 0.34 conditional units
- Inflammation inhibition (%) (white mongrel male rats [1]): 35%
- Volume increment (white mongrel male rats [1]): 0.47 ± 0.08
- HDL-CS (mongrel male rats; 50 µg/kg): 23,9±1,9
- LDL-CS+ VLDL-CS (mongrel male rats; 50 µg/kg): 52,4±3,9**^A
- Total CS (mongrel male rats; 50 µg/kg): 76,3±5,5*^A
- Triglycerides (mongrel male rats; 50 µg/kg): 201,2±8,7***^A
- HDL-CS (mongrel male rats; 500 µg/kg): 27,8±2,3*^A
- LDL-CS+ VLDL-CS (mongrel male rats; 500 µg/kg): 41,5±2,9***^A
- Total CS (mongrel male rats; 500 µg/kg): 69,3±3,7***^A
- Triglycerides (mongrel male rats; 500 µg/kg): 190,0±11,7***^A
- Kcs (mongrel male rats; 50 µg/kg): 2,19±0,16***^A
- Kcs (mongrel male rats; 500 µg/kg): 1,49±0,1***^A

From patent EP2229935A1, “Peptide derivatives or pharmaceutically acceptable salts thereof, method for producing the same, use of said derivatives and pharmaceutical composition” (Nebolsin, Vladimir Evgenievich, priority 1997, dated 1999)
